In patent publication US7112676B2, “Pyrimido compounds having antiproliferative activity” (Hoffmann-La Roche Inc., priority 2002, dated 2006):

How the values were obtained:
FGFR = target: T1, FGFR; test: FGFR kinase HTRF assay; format: biochemical; conditions: 10 μM ATP, read-out: IC50 (μM) - Enzyme Inhibition Assays FGFR
T1 construct: fused on or other part: GST tag
Description: (§1) To determine inhibition of KDR, FGFR, EGFR, and PDGFR activity, kinase assays were conducted using an HTRF (Homogeneous Time Resolved Fluorescence) assay. This assay is described in A. J. Kolb et. al., Drug Discovery Today, 1998, 3(7), p 333.
(§2) Kinase activity assays were performed in 96-well polypropylene plates (Falcon) with a total volume of 90 μL in each well. Each well contained 1 μM KDR substrate (Biotin-EEEEYFELVAKKKK), 1 nM activated KDR, and a test compound with one of 8 assay concentrations ranging from 100 μM to […] (1:5 serial dilution). The kinase activity assay was done in the presence of 100 mM HEPES, pH 7.4, 1 mM DTT, 0.1 mM Na2VO4, 25 mM MgCl2, 50 mM NaCl (from KDR stock solution), 1% DMSO (from compound), 0.3 mM ATP (at Km concentration) and 0.02% BSA. The reaction was incubated at 37° C. for 30 minutes. To stop the KDR reaction, 72 μL of reaction mixture was transferred into a STOP plate containing 18 μL of revelation buffer (20 mM EDTA, 50 mM HEPES, pH 7.4, 0.02% BSA, 10 nM Eu-labelled anti-pY antibody (final conc. 2 nM), and 100 nM streptavidin (final conc. 20 nM)). After mixing, 35 μL of solution was transferred into duplicate wells of a 384-well black plate (Costar), and read at 615/665 nm on a Wallac Victor 5 reader.
FGFR, EGFR, and PDGFR activity assays were carried out as described above for the KDR activity assay with the following differences. GST-tagged FGFR enzyme was activated at room temperature for 1 hour in the following activation buffer: 100 mM HEPES, pH 7.4, 50 mM NaCl, 20 mM MgCl2, and 4 mM ATP. The kinase activity assay was performed with 1 μM substrate (Biotin-EEEEYFELV), 1.5 nM activated FGFR, and test compound in the presence of 100 mM HEPES, 1 mM DTT, 0.4 mM MgCl2, 0.4 mM MnCl2, 50 mM NaCl, 1% DMSO, 10 μM ATP (Km=8.5 μM for FGFR), 0.1 mM Na2VO4, and 0.02% BSA, in a total volume of 90 μL. The rest of the assay was performed in the same manner as KDR assay.
(§3) Compound IC50 values were determined from duplicate sets of data, and calculated by using Excel and fitting data to equation Y=[(a−b)/{1+(X/c)^d]+b, where a and b are enzyme activity in the presence of no test inhibitor compound and an infinite amount of inhibitor test compound, respectively, c is the IC50 and d is the hill constant of the compound response. The IC50 value is the concentration of test compound that reduces by 50% the enzyme activity under the test conditions described.

KDR = target: T2, KDR (Homo sapiens, UniProt P35968); test: KDR kinase HTRF assay; format: biochemical; conditions: 0.3 mM ATP, read-out: IC50 (μM) - Enzyme Inhibition Assays KDR
T2 construct: EEE-tag
Description: as §1
Prior to kinase reaction, recombinant EEE-tagged KDR was activated in the presence of activation buffer (50 mM HEPES, pH 7.4, 1 mM DTT, 10% glycerol, 150 mM NaCl, 0.1 mM EDTA, 26 mM MgCl2, and 4 mM ATP). The enzyme was incubated at 4° C. for 1 hour.
as §2, §3

EGFR = EGFR (Homo sapiens, UniProt P00533); test: EGFR kinase HTRF assay; format: biochemical; conditions: 0.5 μM ATP, read-out: IC50 (μM) - Enzyme Inhibition Assays EGFR
Description: as §1, §2
(§4) The EGFR kinase activity assay was performed with 1 μM substrate (Biotin-EEEEYFELV), 1.5 nM EGFR, test compounds, 100 mM HEPES, pH 7.4, 1 mM DTT, 5 mM MgCl2, 2 mM MnCl2, 1% DMSO, 0.5 μM ATP (Km for EGFR), 0.1 mM Na2VO4, and 0.02% BSA. The rest of the assay was performed in the same manner as the KDR assay.
as §3

PDGFR = PDGFR kinase HTRF assay; format: biochemical; conditions: 2.3 μM ATP, read-out: IC50 (μM) - Enzyme Inhibition Assays PDGFR
Description: as §1, §2
as §4, with “PDGFR” for “EGFR”, “1.0” for “1.5”, “PDGFR,” for “EGFR,”, “2.3” for “0.5”, “PDGFR),” for “EGFR),”
as §3

VEGF-stimulated HUVEC = VEGF-stimulated HUVEC proliferation assay (BrdU); format: cell-based; conditions: Homo sapiens, VEGF 20 ng per mL, BrdU labeling, 24 hour exposure, read-out: IC50 (μM) of VEGF and FGF-Stimulated HUVEC Proliferation Assays HUVEC/VEFG
Description: (§5) The antiproliferative activity of test compounds of this invention in cell-based assays was evaluated by BrdU assay using the BrdU kit (Roche Biochemicals 1-647-229). Human umbilical vein endothelial cells (HUVEC, Clonetics CC-2519) were cultured in EGM-2 (Clonetics CC-3162) medium and seeded at 10000 cells per well in a volume of 200 μL of EGM-2 (Clonetics CC-3162) media in a 96-well flat bottom plates (Costar 3595) overnight. After 24 hours of growth at 37° C. with 5% CO2, the incubation media was removed slowly by aspiration and the content of each well was washed with 300 μL pre-warmed EBM-2 (Clonetics CC-3156) containing 50 μg per mL of gentamycin and 50 ng per mL of amphotercin-B (Clonetics CC-4083). Subsequently, the remaining media was again aspirated and replaced with 160 μL per well of serum starvation media (EBM-2 supplemented with 1% heat inactivated FBS (Clonetics CC-4102), 50 μg per mL gentamycin and 50 ng per mL of amphotercin-B (Clonetics CC-4083), 10 units per mL of Wyeth-Ayerst heparin (NDC0641-0391-25), and 2 mM L-glutamine (GIBCO 25030-081). After serum starving the cells for 24 hours, 20 μL of test compound at 10× test concentration in serum starvation medium with 2.5% DMSO was added to the appropriate wells. The control wells contained 20 μL of serum starvation medium with 2.5% DMSO. Plates were returned to the incubator for 2 hours. After pre-incubating the cells with the test compounds for 2 hours, 20 μL of growth factors at 10× assay concentration diluted in serum starvation media, FGF at 50 ng per mL, or VEGF (R&D systems 293-VE) at 200 ng per mL were added. The final concentration of FGF in the assay was 5 ng per mL and the final concentration of VEGF in the assays was 20 ng per mL. The growth factor free control wells had 20 μL per well of serum starvation media with the same amount of BSA as the wells with growth factors. The plates were returned to the incubator for an additional 22 hours.
(§6) After 24 hour exposure to the test compounds, the cells were labeled with BrdU (Roche Biochemicals 1-647-229), by adding 20 μL per well of BrdU labeling reagent that has been diluted (1:100) in serum starvation medium. The plates were then returned to the incubator for 4 hours. The labeling medium was removed by draining the medium onto paper towels. The cells were fixed and DNA denatured by adding 200 μL of fixation/denaturation solution to each well and incubating at room temperature for 45 minutes. The fixation/denaturation solution was drained onto paper towels and to each well was added 100 μL of anti-BrdU-POD and the wells were incubated for 2 hours at room temperature. The antibody solution was removed and the wells were each washed 3–4 times with 300 μl PBS. 100 μL of the TMB substrate solution was added to each well and the wells were incubated at room temperature for 5–8 minutes. The reaction was then stopped by adding 100 μL per well of 1 M phosphoric acid. The plates were read at 450 nm with reference wavelength of 650 nm. The percent inhibition for each test compound was calculated by subtracting the absorbency of the blank (no cells) wells from all wells, then subtracting the division of the average absorbency of each test duplicate by the average of the controls from 1. The final product was then multiplied by 100 (% of inhibition=(1−average absorbency of test duplicate/average of control)100). The IC50 value is the concentration of test compound that inhibits by 50% BrdU labeling, and is a measure of inhibition of cell proliferation. The IC50 is determined from the linear regression of a plot of the logarithm of the concentration versus percent inhibition.

FGF-stimulated HUVEC = FGF-stimulated HUVEC proliferation assay (BrdU); format: cell-based; conditions: Homo sapiens, FGF 5 ng per mL, BrdU labeling, 24 hour exposure, read-out: IC50 (μM) of VEGF and FGF-Stimulated HUVEC Proliferation Assays HUVEC/bFGFR
Description: as §5, §6

Chain of EGFR (P00533 25-1210, species assumed): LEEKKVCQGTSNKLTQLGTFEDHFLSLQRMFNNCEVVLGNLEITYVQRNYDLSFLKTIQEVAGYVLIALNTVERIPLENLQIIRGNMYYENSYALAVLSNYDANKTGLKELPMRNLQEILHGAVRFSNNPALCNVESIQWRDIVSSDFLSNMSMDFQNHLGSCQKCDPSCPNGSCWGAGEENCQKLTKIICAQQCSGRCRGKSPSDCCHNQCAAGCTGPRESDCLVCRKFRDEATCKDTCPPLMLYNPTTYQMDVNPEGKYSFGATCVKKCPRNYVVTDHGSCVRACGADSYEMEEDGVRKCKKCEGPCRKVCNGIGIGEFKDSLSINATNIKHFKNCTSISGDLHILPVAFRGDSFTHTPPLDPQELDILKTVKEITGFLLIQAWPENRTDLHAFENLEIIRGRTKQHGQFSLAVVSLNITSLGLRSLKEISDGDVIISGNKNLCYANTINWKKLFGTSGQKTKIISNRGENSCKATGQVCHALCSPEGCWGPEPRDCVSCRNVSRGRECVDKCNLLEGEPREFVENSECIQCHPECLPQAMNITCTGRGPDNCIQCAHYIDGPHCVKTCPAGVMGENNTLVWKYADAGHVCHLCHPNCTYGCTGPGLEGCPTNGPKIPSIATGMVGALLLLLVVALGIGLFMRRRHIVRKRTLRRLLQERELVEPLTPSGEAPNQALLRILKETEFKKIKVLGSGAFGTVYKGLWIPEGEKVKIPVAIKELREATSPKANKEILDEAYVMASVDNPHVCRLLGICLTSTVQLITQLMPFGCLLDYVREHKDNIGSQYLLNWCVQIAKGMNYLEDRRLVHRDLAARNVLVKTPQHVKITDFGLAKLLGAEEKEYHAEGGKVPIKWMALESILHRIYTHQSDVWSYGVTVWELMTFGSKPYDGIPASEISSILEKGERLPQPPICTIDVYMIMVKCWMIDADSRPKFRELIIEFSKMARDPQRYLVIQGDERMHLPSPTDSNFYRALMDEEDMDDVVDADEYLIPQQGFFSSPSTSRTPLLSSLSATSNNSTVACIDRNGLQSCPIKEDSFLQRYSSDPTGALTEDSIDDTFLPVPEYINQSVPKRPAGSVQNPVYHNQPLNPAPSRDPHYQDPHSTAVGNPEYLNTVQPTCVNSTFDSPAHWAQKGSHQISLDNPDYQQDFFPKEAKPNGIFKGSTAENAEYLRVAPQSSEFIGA
T2 sequence (P35968 20-1356, species assumed): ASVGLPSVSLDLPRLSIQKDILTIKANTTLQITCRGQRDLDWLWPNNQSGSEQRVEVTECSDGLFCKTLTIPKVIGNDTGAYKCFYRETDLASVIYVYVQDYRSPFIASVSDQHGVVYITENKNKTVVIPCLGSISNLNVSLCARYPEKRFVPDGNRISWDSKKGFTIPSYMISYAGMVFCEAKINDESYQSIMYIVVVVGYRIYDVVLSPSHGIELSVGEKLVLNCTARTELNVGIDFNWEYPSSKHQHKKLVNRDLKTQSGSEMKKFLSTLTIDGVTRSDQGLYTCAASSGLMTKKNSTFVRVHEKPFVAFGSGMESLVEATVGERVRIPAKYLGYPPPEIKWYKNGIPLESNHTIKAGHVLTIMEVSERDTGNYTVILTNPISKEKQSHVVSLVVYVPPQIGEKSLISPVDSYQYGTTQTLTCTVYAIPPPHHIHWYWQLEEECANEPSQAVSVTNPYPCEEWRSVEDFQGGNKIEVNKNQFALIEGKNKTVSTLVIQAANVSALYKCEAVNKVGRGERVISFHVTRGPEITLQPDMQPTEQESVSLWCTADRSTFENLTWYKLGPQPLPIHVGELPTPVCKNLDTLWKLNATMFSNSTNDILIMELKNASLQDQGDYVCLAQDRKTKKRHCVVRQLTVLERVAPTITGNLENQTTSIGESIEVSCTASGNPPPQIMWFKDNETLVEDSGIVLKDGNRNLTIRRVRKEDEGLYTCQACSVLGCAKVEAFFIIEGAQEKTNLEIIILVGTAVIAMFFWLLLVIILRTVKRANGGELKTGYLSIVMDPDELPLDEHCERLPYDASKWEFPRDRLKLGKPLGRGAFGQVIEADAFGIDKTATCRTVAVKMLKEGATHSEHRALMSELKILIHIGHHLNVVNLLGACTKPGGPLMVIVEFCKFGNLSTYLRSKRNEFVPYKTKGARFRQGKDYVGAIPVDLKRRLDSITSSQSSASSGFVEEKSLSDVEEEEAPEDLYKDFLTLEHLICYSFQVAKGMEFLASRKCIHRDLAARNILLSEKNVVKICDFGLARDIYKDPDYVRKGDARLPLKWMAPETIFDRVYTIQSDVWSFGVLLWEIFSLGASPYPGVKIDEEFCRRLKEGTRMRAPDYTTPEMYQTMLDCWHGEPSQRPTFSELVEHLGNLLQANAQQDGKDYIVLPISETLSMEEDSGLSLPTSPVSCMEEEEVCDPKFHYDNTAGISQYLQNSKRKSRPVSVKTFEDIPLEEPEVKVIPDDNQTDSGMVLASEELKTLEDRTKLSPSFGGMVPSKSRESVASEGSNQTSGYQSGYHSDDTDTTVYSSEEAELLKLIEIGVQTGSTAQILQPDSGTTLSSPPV

SMILES	IC50 (FGFR) [µM]	melting point [°C]	IC50 (KDR) [µM]	IC50 (EGFR) [µM]	IC50 (PDGFR) [µM]	IC50 (VEGF-stimulated HUVEC) [µM]	IC50 (FGF-stimulated HUVEC) [µM]
CCC1c2cnc(Nc3ccccc3)nc2N(c2ccccc2)C(=O)N1c1ccc(OC)cc1 (racemic) [Example 7e, (±)-4-Ethyl-3-(4-methoxy-phenyl)-1-phenyl-7-phenylamino-3,4-dihydro-1H-pyrimido[4,5d]pyrimidin-2-one]	< 10	172 to 176	< 10	< 10	< 10		
COc1ccc(N2C(=O)N(c3ccccc3)c3nc(Nc4ccccc4)ncc3C2C(C)C)cc1 (racemic) [Example 11e, (±)-4-Isopropyl-3-(4-methoxy-phenyl)-1-phenyl-7-phenylamino-3,4-dihydro-1H-pyrimido[4,5-d]pyrimidin-2-one]	> 10	229 to 235	> 10	< 10	> 10		
COc1ccc(Cl)c(N2C(=O)N(c3ccccc3)c3nc(Nc4ccccc4)ncc3C2C)c1 (racemic) [Example 12c, (±)-3-(2-Chloro-5-methoxy-phenyl)-4-methyl-1-phenyl-7-phenylamino-3,4-dihydro-1H-pyrimido[4,5-d]pyrimidin-2-one]	< 10		< 10	< 10	< 10		
COc1ccc(N2C(=O)N(c3ccccc3)c3nc(N(C(C)=O)c4ccccc4)ncc3C2C)cc1 (racemic) [Example 19, (±)-N-[6-(4-Methoxy-phenyl)-5-methyl-7-oxo-8-phenyl-5,6,7,8-tetrahydro-pyrimido[4,5-d]pyrimidin-2-yl]-N-phenyl-acetamide]	< 10		< 10	< 10	< 10	< 10	< 10
COc1ccc(N2C(=O)N([C@H]3CC[C@H](O)CC3)c3nc(Nc4ccccc4)ncc3C2C)cc1 (mixture of isomers) [Example 20b, (±)-1-(trans-4-Hydroxy-cyclohexyl)-3-(4-methoxy-phenyl)-4-methyl-7-phenylamino-3,4-dihydro-1H-pyrimido[4,5-d]pyrimidin-2-one]	< 10		< 10	< 10	< 10	< 10	< 10
COc1ccc(N2C(=O)N(c3ccccc3)c3nc(Nc4ccccc4)ncc3[C@H]2C)cc1 (single isomer, unassigned) [Example 2]	< 10	218 to 233	< 10	< 10	< 10		
COc1ccc(N2C(=O)N([C@@H](C)CO)c3nc(Nc4ccccc4)ncc3C2C)cc1 (stereo partly drawn) [Example 13d, 1-(2-Hydroxy-1-(S)-methyl-ethyl)-3-(4-methoxy-phenyl)-4-methyl-7-phenylamino-3,4-dihydro-1H-pyrimido[4,5-d]pyrimidin-2-one]		165 to 180					
COc1ccc(N2C(=O)N([C@H](C)CO)c3nc(Nc4ccccc4)ncc3[C@H]2C)cc1 [Example 14f, 1-(2-Hydroxy-1-(R)-methyl-ethyl)-3-(4-methoxy-phenyl)-4-(R)-methyl-7-phenylamino-3,4-dihydro-1H-pyrimido[4,5-d]pyrimidin-2-one]	< 10	158 to 162	< 10	< 10	< 10		
COc1ccc(N2C(=O)N([C@@H](C)c3ccccc3)c3nc(Nc4ccccc4)ncc3C2C)cc1 (stereo partly drawn) [Example 18, 3-(4-Methoxy-phenyl)-4-methyl-7-phenylamino-1-[1-(S)-phenyl-ethyl]-3,4-dihydro-1H-pyrimido[4,5-d]pyrimidin-2-one]	< 10		< 10	< 10	< 10	< 10	< 10
